Laboratory results taken from paper PMC12567082, “Silver(I) Complexes Bearing S-Alkyl Thiosalicylic Acid Derivatives: DNA/BSA Binding and Antitumor Activity In Vitro and In Vivo” (Pharmaceutics, 2025).

Assays:
[1] = test system: CT-DNA; test: UV-Vis absorption titration with CT-DNA; assay type: binding, calf; conditions: ΔG = −RT lnKb
Protocol: All DNA-binding studies were conducted in 0.01 M phosphate-buffered saline (PBS, pH 7.40) at 25 °C. […] To eliminate absorbance from CT-DNA, identical amounts of DNA were added to both the test and reference solutions prior to spectral recording.
Intrinsic binding constants (Kb) were calculated using the equation to determine the DNA-binding affinities of the complexes (1):[DNA]/(εa − εf) = [DNA]/(εb − εf) + 1 [Kb(εb − εf)](1)
[DNA] represents the concentration of DNA; apparent extinction coefficient, εa, was calculated as the ratio of the observed absorbance to the concentration of the complex (Aobs/[complex]); and εb and εf correspond to the extinction coefficients of the complex in the fully bound and free forms, respectively. Kb was determined from the ratio of the slope to the intercept obtained from the corresponding linear plots.

[2] = test system: mouse lung cancer (LLC1); test: MTT assay LLC1; assay type: cell-based
Protocol: (§1) Mouse breast cancer (4T1), human breast cancer (MDA-MB-468), mouse colon cancer (CT26), human colon cancer (HCT-116), mouse lung cancer (LLC1), human lung cancer (A549), mouse mesenchymal stem cells (mMSC), and human fibroblast cell lines (MRC-5) were used in this study and were consistently cultured in complete Dulbecco’s Modified Eagle Medium (DMEM) (Sigma-Aldrich, St. Louis, MO, USA) in incubator (5% CO2) under standard conditions. Complete DMEM was Dulbecco’s Modified Eagle Medium supplemented with 10% fetal bovine serum (FBS), 1 mmol/L penicillin–streptomycin, 1 mmol/L mixed nonessential amino acids, and 2 mmol/L L-glutamine (Sigma-Aldrich, St. Louis, MO, USA). All cancer cell lines and MRC-5 cell line were obtained from American Type Culture Collection (ATCC, Manassas, VA, USA), but mMSC was manufactured by Gibco (Middlesex County, MA, USA).
(§2) In 96-well microplates, we seeded cancer and non-cancer cells, more exactly 5 × 10^3 cells per well in 100 μL of complete DMEM (Sigma-Aldrich, St. Louis, MO, USA). […] Tested concentration range for all metal-based substances was 3.9–500 μM. After incubation with MTT solution (5 mg/mL; pH 7.2) for 4 h, optical density was determined using Zenyth 3100 microplate multimode detector (Salzburg, Austria). All experiments were performed three times, each in triplicate, and the IC50 values as well as selectivity indexes (IC50 for mMSC or MRC-5/IC50 for mouse or human cancer cells) were calculated.

[3] = test system: CT-DNA; test: Viscosity measurements of DNA solution; parameters: species or system calf; conditions: up to r = 1.0, 8 µM DNA
Protocol: Viscosity measurements were performed to evaluate the interaction of C2 and C4 with DNA. The flow time was measured with a digital stopwatch. For each concentration, six replicate measurements were taken, and the average flow time was used for analysis. The data were presented as (η/η0)^1/3 against r, where η is the viscosity of DNA in the presence of complex, and η0 is the viscosity of DNA alone in the buffered solution. The viscosity value was calculated from the observed flow time of DNA-containing solution (t) corrected for the flow time of buffer alone (t0), η = (t − t0)/t0.

[4] = test system: mouse mesenchymal stem cells (mMSC); test: MTT assay mMSC; assay type: cell-based
Protocol: as §1, §2

[5] = test system: CT-DNA; test: EB–CT-DNA fluorescence quenching; assay type: binding, calf; conditions: EB–CT-DNA 8.52 × 10^−5 M, PBS pH 7.4
Protocol: All samples were prepared in phosphate-buffered saline (PBS, pH 7.4). Stern–Volmer Equation (2) was used to interpret the fluorescence quenching data.

[6] = test system: CT26 cells; test: Annexin V/PI apoptosis in CT26; assay type: cell-based, mouse; conditions: 0.5 μM for 24 h
Protocol: (§3) The following supporting information can be downloaded at https://www.mdpi.com/article/10.3390/pharmaceutics17101340/s1. NMR and FTIR spectra of free ligands and complexes. Figure S1. […] Inset: Plot of [DNA]/(εA − εf) vs. [DNA]. Figure S2. Relative viscosity (η/η0) ^1/3 of CT-DNA (8 µM) in PBS buffer solution with the addition of increasing amounts (r) of C2 and C4 complexes. Figure S3. […] [EB] = 8.52 × 10^−5 M; [DNA] = 8.52 × 10^−5 M; [complex] = (0–6.82) × 10^−5; λex = 527 nm. Arrows show the intensity changes upon increasing the concentration of the complex. Inset graph: Plot of I0/I vs. [Q]. Figure S4. […] [BSA] = 2 μM; [complex] = 0–8 μM; λex = 295 nm. Arrows show the intensity changes upon increasing the concentration of the complex. Inset graph: Plot of I0/I vs. [Q]. Figure S5. […] Figure S6. Dose-dependent cytotoxicity of silver(I) complexes with S-alkyl derivatives of thiosalicylic acid. […] All data are presented as mean values ± SD from three independent experiments performed in triplicate. Figure S7. Dose-dependent cytotoxicity of S-alkyl derivatives of thiosalicylic acid. […] All data are presented as mean values ± SD from three independent experiments performed in triplicate. Figure S8. […] Apoptotic rates of C2-treated (0.5 μM for 24 h) as well as untreated CT26 and HCT116 cells were determined by flow cytometry using Annexin V (FITC) and PI double staining. […]

[7] = test system: Mouse breast cancer (4T1); test: MTT assay 4T1; assay type: cell-based; conditions: 4T1, 48 h
Protocol: as §1, §2

[8] = target: T1, BSA (Bos taurus, UniProt P02769); test: BSA tryptophan fluorescence quenching; assay type: binding, bovine
T1 construct: purchased Sigma-Aldrich
Protocol: The protein binding study was carried out using tryptophan fluorescence quenching experiments with BSA. […] Fluorescence emission spectra were recorded between 300 and 500 nm, with excitation at 295 nm.
The quenching constant Ksv was determined based on the Stern–Volmer relationship, as described by Equation (3):I0/I = 1 + kqτ0[Q] = 1 + Ksv[Q](3)
In this equation, I0 and I refer to the fluorescence intensities of BSA measured without and with the quencher (complex), τ0 represents the average fluorescence lifetime of free BSA (∼10^−8 s), and [Q] indicates the quencher concentration.
Parameters such as association binding constant (K) and the number of binding sites per albumin (n) were obtained from Scatchard Equation (4):(ΔI/I0)/[Q] = nK − KΔI/I0(4)
To minimize inner filter, both intensities of fluorescence originating from excitation and emission light absorption and re-absorption were corrected by employing Equation (5); Icor and Iobs are the corrected and observed fluorescence intensities, respectively, and Aex and Aem represent the absorbance of the metal complex at the excitation and emission wavelengths, respectively.Icor = Iobs · […]^(Aex + Aem)/2(5)

[9] = test system: HCT116 cells; test: Annexin V/PI apoptosis in HCT116; assay type: cell-based, human; conditions: 0.5 μM for 24 h
Protocol: as §3

[10] = test system: human lung cancer (A549); test: MTT assay A549; assay type: cell-based
Protocol: as §1, §2

[11] = test system: human fibroblast cell lines (MRC-5); test: MTT assay MRC-5; assay type: cell-based
Protocol: as §1, §2

[12] = test system: human breast cancer (MDA-MB-468); test: MTT assay MDA-MB-468; assay type: cell-based
Protocol: as §1, §2

T1 sequence (P02769 25-607): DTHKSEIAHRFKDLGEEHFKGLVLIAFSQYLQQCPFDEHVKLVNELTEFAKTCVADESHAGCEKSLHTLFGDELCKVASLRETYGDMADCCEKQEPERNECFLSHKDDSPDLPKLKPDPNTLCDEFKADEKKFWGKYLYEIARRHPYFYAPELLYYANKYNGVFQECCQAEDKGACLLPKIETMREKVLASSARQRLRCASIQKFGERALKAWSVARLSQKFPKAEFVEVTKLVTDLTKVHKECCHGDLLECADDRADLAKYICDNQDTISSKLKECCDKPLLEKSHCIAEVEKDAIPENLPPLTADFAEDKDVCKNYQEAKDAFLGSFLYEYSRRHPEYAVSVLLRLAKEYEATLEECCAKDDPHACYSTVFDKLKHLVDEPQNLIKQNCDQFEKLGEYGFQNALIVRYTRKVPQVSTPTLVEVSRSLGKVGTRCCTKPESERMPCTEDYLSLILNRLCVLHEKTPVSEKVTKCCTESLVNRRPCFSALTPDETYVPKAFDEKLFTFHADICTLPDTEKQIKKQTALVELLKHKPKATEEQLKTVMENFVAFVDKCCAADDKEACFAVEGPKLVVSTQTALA

With `CCSc1ccccc1C(=O)[O][Ag].CCSc1ccccc1C(=O)[O][Ag]` [C2, [Ag2(S-ethyl-thiosal)2]] the “ΔG (Gibbs free energy)” value [1] was -6.76 kcal/mol, the IC50 ([2]; LLC1, 24 h) was 18.2 ± 0.93 µM and the “Selectivity Index (IC50 mMSC or MRC-5/ IC50 Cancer Cell)” value (shortened to “Selectivity Index”) ([2]; LLC1, 24 h) was 0.24. The IC50 ([2]; LLC1, 48 h) was 20.2 ± 0.79 µM, the “Selectivity Index” value ([2]; LLC1, 48 h) was 0.22 and the “viscosity of CT-DNA” value [3] was “modest rise in the viscosity”. The IC50 ([4]; 24 h) was 4.29 ± 0.92 µM, the IC50 ([4]; 48 h) was 4.52 ± 0.48 µM and the “Ksv EB (Stern–Volmer constant)” value [5] was “(1.1 ± 0.1) × 10^4 M^−1”. The “apoptosis of CT26 cells” value [6] was “underwent apoptosis”, the IC50 [7] was 4.84 ± 0.92 µM and the “Selectivity Index” value [7] was 0.93. For the same compound, the “kq (quenching rate constant)” value ([8]; BSA 2 µM) was “(1.4 ± 0.1) × 10^13 M^−1 s^−1”, the “Ksv (Stern–Volmer constant)” value ([8]; BSA 2 µM, λex 295 nm) was “(1.4 ± 0.1) × 10^5 M^−1” and the “K (binding constant)” value ([8]; Scatchard equation) was “(1.3 ± 0.1) × 10^5 M^−1”. The “n (number of binding sites)” value ([8]; Scatchard equation) was 1.1, the “apoptosis of HCT116 cells” value [9] was “underwent apoptosis” and the IC50 ([10]; A549, 24 h) was 37.8 ± 1.01 µM. For the same compound, the “Selectivity Index” value ([10]; A549, 24 h) was 1.01, the IC50 ([10]; A549, 48 h) was 50.2 ± 1.07 µM and the “Selectivity Index” value ([10]; A549, 48 h) was 0.86. The IC50 ([11]; MRC-5, 24 h) was 38 ± 1.91 µM, the IC50 ([11]; MRC-5, 48 h) was 43.2 ± 1.23 µM and the IC50 ([12]; MDA-MB-468, 24 h) was 8.67 ± 1.13 µM. For the same compound, the “Selectivity Index” value ([12]; MDA-MB-468, 24 h) was 4.39, the IC50 ([12]; MDA-MB-468, 48 h) was 5.43 ± 0.34 µM and the “Selectivity Index” value ([12]; MDA-MB-468, 48 h) was 7.95.
